# Tests used:
# Conditions in all cases: Hippocampus
# [1] = molecular target: High-affinity choline transporter 1 (Rattus norvegicus) (UniProt Q9JMD7); test: Effect on uptake amount of [3H]choline in the hippocampal synaptosomes of AF64A-treated rats at a concentration of 10e-5 M.
# [2] = molecular target: High-affinity choline transporter 1 (Rattus norvegicus) (UniProt Q9JMD7); test: Effect on uptake amount of [3H]choline in the hippocampal synaptosomes of AF64A-treated rats at a concentration of 10e-6 M.
# [3] = molecular target: High-affinity choline transporter 1 (Rattus norvegicus) (UniProt Q9JMD7); test: Effect on uptake amount of [3H]choline in the hippocampal synaptosomes of AF64A-treated rats at a concentration of 10e-7 M.
# Sequence of High-affinity choline transporter 1 (Rattus norvegicus) (Q9JMD7 whole entry, looked up): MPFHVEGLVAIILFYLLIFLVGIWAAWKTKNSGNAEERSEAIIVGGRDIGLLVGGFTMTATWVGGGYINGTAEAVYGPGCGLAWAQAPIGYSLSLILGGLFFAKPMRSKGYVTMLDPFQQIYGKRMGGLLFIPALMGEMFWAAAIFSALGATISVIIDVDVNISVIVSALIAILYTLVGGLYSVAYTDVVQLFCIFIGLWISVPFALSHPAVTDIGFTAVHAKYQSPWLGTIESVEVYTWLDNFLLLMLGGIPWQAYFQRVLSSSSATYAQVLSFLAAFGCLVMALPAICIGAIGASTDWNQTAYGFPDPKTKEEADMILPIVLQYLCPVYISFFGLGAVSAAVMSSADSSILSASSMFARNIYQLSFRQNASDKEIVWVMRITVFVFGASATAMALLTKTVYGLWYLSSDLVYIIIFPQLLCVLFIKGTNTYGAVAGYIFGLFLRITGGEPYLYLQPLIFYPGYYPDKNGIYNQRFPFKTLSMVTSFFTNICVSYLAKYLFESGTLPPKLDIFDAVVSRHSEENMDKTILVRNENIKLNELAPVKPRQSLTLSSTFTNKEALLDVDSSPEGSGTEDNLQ
HACU improvement [1],HACU improvement [2],HACU improvement [3],SMILES
10%,11%,15%,O=C1CN(CC(=O)Nc2c3c(nc4ccccc24)CCCC3)C(=O)N1
-71%,-20%,1%,O=C(CN1CCCC1)Nc1c2c(nc3ccccc13)CCCC2
27%,-2%,-4%,O=C(O)CNCC(=O)Nc1c2c(nc3ccccc13)CCCC2
13%,6%,-7%,CC(NCC(=O)Nc1c2c(nc3ccccc13)CCCC2)C(=O)O (stereo not given)
16%,0%,-5%,O=C(CN1C(=O)CNC1=O)Nc1c2c(nc3ccccc13)CCCC2
-13%,8%,8%,Nc1c2c(nc3ccccc13)CCCC2
2%,5%,11%,CCCCCC(=O)Nc1c2c(nc3ccccc13)CCCC2
15%,9%,12%,CC(C)C(=O)Nc1c2c(nc3ccccc13)CCCC2
-7%,-13%,0%,CN(C)CC(=O)Nc1c2c(nc3ccccc13)CCCC2
28%,24%,13%,CCCC(=O)Nc1c2c(nc3ccccc13)CCCC2

# More lines, now with the values behind:
SMILES,HACU improvement [1],HACU improvement [2],HACU improvement [3]
CC(=O)Nc1c2c(nc3ccccc13)CCCC2,-11%,-10%,-12%
O=C(CN1CCCC1=O)Nc1c2c(nc3ccccc13)CCCC2,13%,14%,17%
CC1C(=O)NC(=O)N1CC(=O)Nc1c2c(nc3ccccc13)CCCC2 (stereo not given),11%,2%,4%
CCC(=O)Nc1c2c(nc3ccccc13)CCCC2,3%,1%,3%
CNCC(=O)Nc1c2c(nc3ccccc13)CCCC2,21%,18%,8%
CC(C)CC(=O)Nc1c2c(nc3ccccc13)CCCC2,0%,-22%,4%
CCCCC(=O)Nc1c2c(nc3ccccc13)CCCC2,18%,-1%,-2%
O=C(Cn1ccnc1)Nc1c2c(nc3ccccc13)CCCC2,48%,14%,6%
O=C(CN1CCNC1=O)Nc1c2c(nc3ccccc13)CCCC2,25%,1%,6%
O=C(CN1CCCCC1=O)Nc1c2c(nc3ccccc13)CCCC2,5%,2%,-3%
